The text below walks through data of PMC7570662, “In Vivo Pharmacokinetic Analysis Utilizing Non-Targeted and Targeted Mass Spectrometry and In Vitro Assay against Transient Receptor Potential Channels of Maobushisaishinto and Its Constituent Asiasari Radix” (Molecules, 2020).

Read-outs that look alike come from different tables or passages of the source.

The nature of data set [1]: Quantitative targeted LC-MS/MS pharmacokinetics of AR ingredients in rat plasma after oral MBST. The format is in vivo. The protocol:
Seven-week-old male Sprague-Dawley rats were purchased from Charles River Laboratories (Yokohama, Japan) and Japan SLC (Hamamatsu, Japan). The animals were housed under a temperature of 23 °C ± 3 °C and relative humidity of 50% ± 20%, with 12-h/12-h light/dark cycle and allowed free access to water and standard laboratory food (MF, Oriental Yeast Co., Ltd., Tokyo, Japan). The animals were used in experiments following habituation for several days.
Extract powders of AR or MBST were suspended in distilled water and orally administered to rats having fasted for approximately 16 h. The dose of AR was set at 2 g/kg, and the MBST doses were set at 1 and 2 g/kg. 1 g/kg MBST contained 578 µg/kg, 147 µg/kg, 226 µg/kg, 426 µg/kg asarinin, sesamin, methyl kakuol, and amide A, respectively. The doses were chosen based on a previous pharmacological study of MBST using rats.
Blood samples were centrifuged at 1700× g at 4 °C for 15 min to obtain plasma, of which samples were then stored at ≤−75 °C until analysis.
To quantify the plasma concentration of the AR components identified by the non-targeted analysis, the plasma samples at 0–24 h after MBST administration (1 or 2 g/kg) were supplied to targeted LC-MS/MS analysis in SRM mode with electrospray ionization.
For the quantification of methyl kakuol, amide A, asarinin, and sesamin in plasma, 100 µL of MBST-treated rat plasma was mixed with 20 µL of methanol (as the vehicle of the working solution described below) and 20 µL of internal standard niflumic acid (2 or 20 ng/mL). To prepare the calibration curve, the same volumes of blank plasma and various concentrations of working solution (final plasma concentration, 0.02–200 ng/mL) were used instead of the MBST-treated rat plasma and methanol. Finally, 500 µL of methanol was added for deproteinization. The mixture was centrifuged at 7000× g at 4 °C for 5 min. The supernatant was dried using a centrifugal evaporator. The dried residue was dissolved in 60 or 80 μL of the initial LC mobile phase which was composed of 5 mmol/L ammonium acetate in water/methanol (70/30, v/v), and then, a 5 or 10 μL aliquot was injected into the LC-MS/MS system. The injected sample was chromatographically separated using a YMC-Pack ODS-AQ column (2.0 ×150 mm I.D., 3-μm particle size; GL Sciences, Tokyo, Japan) at 30 °C. The mobile phase consisted of solution A (5 mmol/L ammonium acetate) as well as solution B (methanol), with a gradient of solution B (30%, 0 min; 70%, 25 min; 95%, 25.01–30 min; 30%, 30.01–35 min; v/v) at a flow rate of 0.3 mL/min. In brief, the compounds were analyzed using optimal MS/MS parameters as follows: methyl kakuol (m/z 209.056/176.1), amide A (m/z 248.174/57.1), asarinin (m/z 372.123/173.1), and sesamin (m/z 372.118/233.1). The calibration ranges for methyl kakuol, amide A, asarinin, and sesamin were 0.5–100 ng/mL, 0.5–200 ng/mL, 0.1–200 ng/mL, 0.1–200 ng/mL, respectively.
The AR ingredient levels in the plasma are presented as the mean + standard deviation. Pharmacokinetic parameters of plasma AR ingredients, such as the Cmax, AUC0-last, were calculated by non-compartmental analysis using the Phoenix WinNonlin software (Certara L.P., St. Louis, MO, USA). The concentration data were pooled per each time point; then, the mean concentration–time data were subjected to the non-compartmental analysis.

In the next data set the target is T1, human TRPA1 (Homo sapiens, UniProt O75762).
T1 construct: Each full-length human TRPA1, TRPV1, TRPV4, and TRPM8 coding regions were introduced into a pcDNA4/TO vector; expressed in transfected cells; host or cells: T-REx-293 cells (tetracycline-induced, pcDNA4/TO vector)
As to the kind of experiment: Ca2+ influx assay in TRPA1-expressing T-REx-293 cells. The class given is cell-based. The note with it: for activation at 10 µM: T-REx-293, read-out: % of Activation Compared to Positive Control against Each Subfamily of TRP Channel TRPA1; for EC50: dose-response test, Ca2+ influx, read-out: EC50 Value against TRPA1. As to the method: (§1) Each full-length human TRPA1, TRPV1, TRPV4, and TRPM8 coding regions were introduced into a pcDNA4/TO vector (Thermo Fisher Scientific, Waltham, MA, USA) and transfected into T-REx-293 cells (Thermo Fisher Scientific) to obtain stable cell lines expressing human TRPA1, TRPV1, TRPV4, and TRPM8. Cells were cultured in DMEM with 10% FBS, 4 mmol/L L-glutamine, and penicillin/streptomycin.
(§2) Cells were suspended in medium with 1 µg/mL tetracycline and seeded in poly-D-lysine coated 96-well plate at 2.5 × 10^4 cells/well. After overnight culture, the cells were used for Ca^2+ influx assay.
(§3) The Ca^2+ influx assay was performed using a FLIPR Calcium 5 Assay Kit (Molecular Devices, Sunnyvale, CA, USA) according to previously reported methods with minor modifications. In brief, cells were incubated with 80 µL Ca^2+-chelating dye dissolved in assay buffer at pH 7.4 (Hanks’ Balanced Salt Solution containing 20 mmol/L of N-2-hydroxyethylpiperazine-N’-2-ethanesulfonic acid) at room temperature for 30 min. The plates were assayed using a FlexStation 3 Microplate Reader (Molecular Devices). The fluorescence intensity was traced entirely for 80 s. The baseline of fluorescence was measured for 20 s before adding 20 µL of test compound (final concentration, 10 µmol/L). The response was expressed as percentage activation using the relative fluorescence units (RFU) (% activation = 100 × ((RFUmax − RFUbaseline)/RFUbaseline) − 100). Furthermore, the activities of each test compound against several subfamilies of TRP channels were represented as the relative enhancement of Ca^2+ influx of each positive control, indicated as follows: 20 µmol/L of allyl isothiocyanate (an agonist of TRPA1), 2 µmol/L of capsaicin (an agonist of TRPV1), 4 µmol/L of GSK1016790A (an agonist of TRPV4), and 20 µmol/L of icilin (an agonist of TRPM8). The dose–response curve was fitted to the sigmoidal dose-response equation (top, the max response of each compound), and EC50 values were calculated using GraphPad Prism 7 software (GraphPad, San Diego, CA, USA).

The next data set concerns the target T2, human TRPM8 (Homo sapiens, UniProt Q7Z2W7).
T2 construct: Each full-length human TRPA1, TRPV1, TRPV4, and TRPM8 coding regions were introduced into a pcDNA4/TO vector; expressed in transfected cells; host or cells: T-REx-293 cells (tetracycline-induced, pcDNA4/TO vector)
As to the kind of experiment: Ca2+ influx assay in TRPM8-expressing T-REx-293 cells. The format is cell-based. The note with it: 10 µmol/L test compound, relative to 20 µmol/L icilin; for activation at 10 µM: T-REx-293, read-out: % of Activation Compared to Positive Control against Each Subfamily of TRP Channel TRPM8. As to the method: as §1, §2, §3

Setting [2] is: 10 µmol/L test compound, relative to 20 µmol/L allyl isothiocyanate.
[3] abbreviates: male, Sprague-Dawley, rat, in vivo, po, 1 g/kg.
The mark [4] stands for this setting: male, Sprague-Dawley, rat, in vivo, po, 2 g/kg.

T2 sequence (Q7Z2W7 whole entry): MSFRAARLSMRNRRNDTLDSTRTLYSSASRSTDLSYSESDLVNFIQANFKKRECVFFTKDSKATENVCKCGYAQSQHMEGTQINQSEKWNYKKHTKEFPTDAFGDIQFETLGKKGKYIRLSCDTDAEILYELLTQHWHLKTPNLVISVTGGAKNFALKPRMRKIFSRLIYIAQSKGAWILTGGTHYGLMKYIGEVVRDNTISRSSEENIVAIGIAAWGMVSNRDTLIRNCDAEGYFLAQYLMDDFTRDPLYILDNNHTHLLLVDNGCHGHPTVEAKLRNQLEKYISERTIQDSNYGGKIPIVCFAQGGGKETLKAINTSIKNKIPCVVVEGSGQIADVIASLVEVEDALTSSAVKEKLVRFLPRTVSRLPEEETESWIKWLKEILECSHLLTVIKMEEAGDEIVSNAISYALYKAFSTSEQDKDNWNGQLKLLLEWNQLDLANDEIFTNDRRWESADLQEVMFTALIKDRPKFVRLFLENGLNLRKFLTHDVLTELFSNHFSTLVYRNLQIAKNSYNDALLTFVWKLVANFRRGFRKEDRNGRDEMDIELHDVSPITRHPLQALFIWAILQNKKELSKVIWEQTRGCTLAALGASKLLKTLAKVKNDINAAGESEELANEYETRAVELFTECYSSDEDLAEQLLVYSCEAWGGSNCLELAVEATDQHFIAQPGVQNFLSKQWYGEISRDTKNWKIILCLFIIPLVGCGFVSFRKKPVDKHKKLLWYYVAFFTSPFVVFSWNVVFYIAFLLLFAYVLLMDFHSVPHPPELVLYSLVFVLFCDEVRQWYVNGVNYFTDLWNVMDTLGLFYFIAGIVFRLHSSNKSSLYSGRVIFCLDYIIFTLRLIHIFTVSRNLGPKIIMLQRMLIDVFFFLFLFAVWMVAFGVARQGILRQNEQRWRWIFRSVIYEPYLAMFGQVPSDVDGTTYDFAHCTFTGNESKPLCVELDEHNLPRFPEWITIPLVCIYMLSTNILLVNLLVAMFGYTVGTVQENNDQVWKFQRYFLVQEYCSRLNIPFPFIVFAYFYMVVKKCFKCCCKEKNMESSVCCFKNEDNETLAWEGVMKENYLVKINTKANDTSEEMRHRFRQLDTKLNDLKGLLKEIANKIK
T1 sequence (O75762 whole entry): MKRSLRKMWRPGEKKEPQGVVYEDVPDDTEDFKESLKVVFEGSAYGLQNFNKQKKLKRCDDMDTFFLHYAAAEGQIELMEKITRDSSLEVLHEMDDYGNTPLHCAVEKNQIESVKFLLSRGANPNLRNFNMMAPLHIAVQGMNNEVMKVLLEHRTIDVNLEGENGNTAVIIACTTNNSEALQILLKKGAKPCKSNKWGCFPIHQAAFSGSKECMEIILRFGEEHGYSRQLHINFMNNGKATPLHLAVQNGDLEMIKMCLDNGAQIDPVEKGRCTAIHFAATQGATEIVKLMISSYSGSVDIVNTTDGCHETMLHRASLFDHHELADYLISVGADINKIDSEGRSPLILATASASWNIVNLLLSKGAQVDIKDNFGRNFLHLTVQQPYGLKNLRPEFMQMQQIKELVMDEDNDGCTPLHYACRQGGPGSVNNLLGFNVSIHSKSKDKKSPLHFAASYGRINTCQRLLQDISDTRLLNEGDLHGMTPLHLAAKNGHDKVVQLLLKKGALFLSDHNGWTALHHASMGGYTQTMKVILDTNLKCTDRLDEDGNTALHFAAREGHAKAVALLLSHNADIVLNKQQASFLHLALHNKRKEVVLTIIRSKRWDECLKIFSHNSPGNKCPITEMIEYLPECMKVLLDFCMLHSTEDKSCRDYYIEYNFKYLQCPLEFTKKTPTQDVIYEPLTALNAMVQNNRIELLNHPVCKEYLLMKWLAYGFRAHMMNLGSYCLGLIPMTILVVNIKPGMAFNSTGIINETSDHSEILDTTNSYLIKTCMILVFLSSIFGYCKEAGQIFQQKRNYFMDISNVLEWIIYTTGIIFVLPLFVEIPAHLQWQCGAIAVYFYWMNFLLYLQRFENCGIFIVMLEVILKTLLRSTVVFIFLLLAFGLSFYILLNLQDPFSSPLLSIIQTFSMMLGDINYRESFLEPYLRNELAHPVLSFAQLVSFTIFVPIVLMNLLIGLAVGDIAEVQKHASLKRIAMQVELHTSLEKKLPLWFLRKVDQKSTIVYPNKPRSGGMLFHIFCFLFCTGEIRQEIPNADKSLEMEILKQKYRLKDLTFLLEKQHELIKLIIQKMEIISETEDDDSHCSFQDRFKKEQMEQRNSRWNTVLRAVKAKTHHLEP

A word on the Cmax: it is the highest concentration seen after dosing. The term Tmax denotes the time from dosing to the highest level. Usually EC50 stands for the concentration needed to bring the measured effect to its halfway point. As for `C/C=C/C=C\CC/C=C/C=C/C(=O)NCC(C)C` [Amide A, (2E,4E,8Z,10E)-N-isobutyl-2,4,8,10-dodecatetraenamide], the AUC(0-t) in data set [1] (male, Sprague-Dawley, rat plasma, oral MBST 1 g/kg, read-out: AUC0-last) stood at 4.87 ng·h/mL; in data set [1] (male, Sprague-Dawley, rat plasma, oral MBST 2 g/kg, read-out: AUC0-last), 18.4 ng·h/mL. In addition, the Cmax in data set [1] (male, Sprague-Dawley, rat plasma, oral MBST 1 g/kg, read-out: Cmax) was found to be 4.08 ng/mL; in data set [1] (male, Sprague-Dawley, rat plasma, oral MBST 2 g/kg, read-out: Cmax), 6.07 ng/mL. Moreover, the k el in data set [1] (male, Sprague-Dawley, rat plasma, oral MBST 1 g/kg, read-out: kel (converted)) was 0.000211 s⁻¹; in data set [1] (male, Sprague-Dawley, rat plasma, oral MBST 2 g/kg, read-out: kel (converted)) it was 6.58e-05 s⁻¹. Besides, the half-life was 54.7 min in data set [1] (male, Sprague-Dawley, rat plasma, oral MBST 1 g/kg, read-out: t1/2 (converted)) and 175 min in data set [1] (male, Sprague-Dawley, rat plasma, oral MBST 2 g/kg, read-out: t1/2 (converted)). Moreover, the Tmax in data set [1] (male, Sprague-Dawley, rat plasma, oral MBST 1 g/kg, read-out: tmax) turned out to be 30 min; in data set [1] (male, Sprague-Dawley, rat plasma, oral MBST 2 g/kg, read-out: tmax), 15 min. The values for the activation at 10 µM at human TRPA1 (setting [2]) and on human TRPM8 were 96% and 6.1%, respectively. Moreover, the 50% effective concentration (EC50) on human TRPA1 was determined as 470 nM.
As for `c1cc2c(cc1[C@H]1OC[C@H]3[C@@H]1CO[C@H]3c1ccc3c(c1)OCO3)OCO2` [Asarinin, (−)-Asarinin], in data set [1] (setting [3]), the AUC(0-t) turned out to be 16.3 ng·h/mL, the highest level (Cmax) was 8.42 ng/mL, the Tmax came out at 15 min and the half-life is 91.2 min. In data set [1] (setting [3]), the k el was 0.000127 s⁻¹. Besides, in data set [1] (setting [4]), the AUC(0-t) came to 38.6 ng·h/mL, the concentration peaked (Cmax) at 14.7 ng/mL, the Tmax came to 15 min and the half-life was 176 min. Also, in data set [1] (setting [4]), the k el was 6.58e-05 s⁻¹. Besides, the activation at 10 µM at human TRPA1 (setting [2]) came out at 106%. Also, at human TRPA1, the 50% effective concentration (EC50) was 3100 nM. Moreover, the activation at 10 µM on human TRPM8 turned out to be 1.4%.
Take `CCC(=O)c1cc2c(cc1OC)OCO2` [Methyl kakuol]: in data set [1] (rat plasma, oral MBST 1 g/kg), the AUC0-last was 22.5 ng·h/mL, the Cmax was 26.7 ng/mL, the time of peak concentration (Tmax) was 30 min and the k el came to 0.000425 s⁻¹. In data set [1] (rat plasma, oral MBST 1 g/kg), this compound returned a t1/2 of 27.1 min. Moreover, in data set [1] (rat plasma, oral MBST 2 g/kg), the AUC0-last came to 214 ng·h/mL, the Cmax was 98.2 ng/mL, the time to peak (Tmax) was 60 min and the k el turned out to be 0.000153 s⁻¹. The t1/2 in data set [1] (rat plasma, oral MBST 2 g/kg) was found to be 75.6 min. Moreover, the “% of Activation Compared to Positive Control against Each Subfamily of TRP Channel TRPA1” value at human TRPA1 (setting [2]) is 49%. The EC50 at human TRPA1 amounted to 270 nM. The “% of Activation Compared to Positive Control against Each Subfamily of TRP Channel TRPM8” value at human TRPM8 is reported as 2.8%.
As for `c1cc2c(cc1[C@H]1OC[C@H]3[C@@H]1CO[C@@H]3c1ccc3c(c1)OCO3)OCO2` [Sesamin], in data set [1] (setting [3]), the AUC(0-t) worked out at 11.9 ng·h/mL, the peak concentration (Cmax) came to 5.63 ng/mL, the Tmax was 30 min and the half-life is 97.8 min. Further, in data set [1] (setting [3]), the k el is 0.000118 s⁻¹. For the same compound, in data set [1] (setting [4]), the AUC(0-t) came to 28.7 ng·h/mL, the concentration peaked (Cmax) at 9.44 ng/mL, the Tmax was determined as 15 min and the half-life was 179 min. The k el in data set [1] (setting [4]) was 6.44e-05 s⁻¹. The activation at 10 µM on human TRPA1 (setting [2]) stood at 106%. In addition, the EC50 on human TRPA1 is 2300 nM. In addition, at human TRPM8, the activation at 10 µM was -0.8%.
